Tested on: B16F10 murine melanoma cells
Assay: Melanin content in α-MSH-stimulated B16F10 cells
Assay type: cell-based
Settings: 400 μg, vs α-MSH alone treated B16F10 cells
Experimental: B16F10 cells (obtained from National Centre for Cell Sciences (NCCS), Pune, India) were cultured in Dulbecco's Modified Eagle's Medium (DMEM; Sigma Aldrich Co, St Louis, USA) with 10% fetal bovine serum (FBS) and penicillin/streptomycin (100 IU.50 Pg ml-1) in a humidified atmosphere of 5% CO2 at 37° C. The cells were cultured in 6-well plates for melanin quantification and enzyme activity assays.
Determination of melanin content of cells was done using a modification of the method of Bilodeau et al (Bilodeau et al 2001). In the present study, the amount of melanin was used as an index of melanogenesis. B16 F10 cells (5×10^4) were transferred to 24-well dishes and incubated in the presence or absence of 100 nM α-MSH. Cells were then incubated for 24 h with different concentration of the composition. After washing twice with PBS, samples were dissolved in 100 μl of 1N NaOH. The samples were then incubated at 60° C. for 1 h and mixed to solubilize the melanin. Absorbance at 405 nm was compared with a standard curve of synthetic melanin.
In order to assess the anti-melanogenesis activity of the composition, the melanin content was measured in both α-MSH-untreated and α-MSH-treated B16F10 cells. The cells were treated with/without α-MSH, followed by treatment with the composition at doses of 100, 200 and 400 μg/Ml (FIG. 4A).

SMILES: OC[C@H]1O[C@@H](Oc2ccc(O)cc2)[C@H](O)[C@@H](O)[C@@H]1O [arbutin]
- decrease of melanin content: 35.96%
